# Measurements published in US20230277427A1, “COOLING SENSATION COMPOSITIONS” (GIVAUDAN SA, priority 2020, published 2023).
# Tests used:
# [1] = Stability of the solutions over time at different temperature (Example B); assay type: physicochemical
# Description: The compound of Formula 1 was 2-methyl-1-(2-(5-(p-tolyl)-1H-imidazol-2-yl)piperidin-1-yl)butan-1-one (hereinafter “the compound”). The testing procedure with a number of different solvents was as follows: • 1. To 0.4 g compound was added 1.6 g solvent. This corresponds to a 20% solution. • 2. This mixture was warmed to 50° C. and agitated for 1 hour. • 3. If the compound dissolved, the solution was allowed to cool to room temperature, and then if it remained clear, it was stored overnight at 4° C. • 4. If crystals had developed, a further 2 g solvent was added (this now corresponding to a 10% solution) and step 2 were performed. • 5. The observations and actions of step 3 were performed. • 6. If the 10% combination of step 4 was not a solution, a further 4 g solvent was added (this now corresponding to a 5% solution), and step 2 were performed. • 7. The observations and actions of step 3 were performed. If crystals had developed, any such solvent was considered unsuitable Any solvent in which the compound was not crystallising at a 20 weight % solution, the testing procedure was repeated with a higher concentration as follows: • 1. To 1 g compound was added 1 g solvent. This corresponds to a 50% solution. • 2. This mixture was warmed to 50° C. and agitated for 1 hour. • 3. If the compound dissolved, the solution was allowed to cool to room temperature, and then if it remained clear, it was stored overnight at 4° C. • 4. If crystals had developed, a further 0.5 g solvent was added (this now corresponding to a 40% solution) and step 2 were performed. • 5. The observations and actions of step 3 were performed. • 6. If the 40% combination of step 4 was not a solution, a further 0.83 g solvent was added (this now corresponding to a 30% solution), and step 2 were performed. • 7. The observations and actions of step 3 were performed.
# [2] = Solubility of compounds of formula (I) in different solvents (Example A); assay type: physicochemical; details: for in the fridge (precipitation): about 4° C. over night; for solubility @ RT: weight % of compound
# Description: Into a 20 ml vial 0.4 g of 2-methyl-1-(2-(5-(p-tolyl)-1H-imidazol-2-yl)piperidin-1-yl)butan-1-one (white solid) have been added followed by the addition of 1.6 g of the respective solvent as indicated in Table 1 below. The vial was warmed to about 50° C. with gentle agitation for 1 hour. If 2-methyl-1-(2-(5-(p-tolyl)-1H-imidazol-2-yl)piperidin-1-yl)butan-1-one hasn't dissolved, 2 g of the respective solvent was added (resulting in a composition comprising 10 weight % of a compound of formula (I)), and again gentle agitated for an additional hour at about 50° C. If 2-methyl-1-(2-(5-(p-tolyl)-1H-imidazol-2-yl)piperidin-1-yl)butan-1-one still hasn't dissolved, 4 g of the respective solvent was added (resulting in a composition comprising 5 weight % of a compound of formula (I)), and again gentle agitated for an additional hour at about 50° C.
# If 2-methyl-1-(2-(5-(p-tolyl)-1H-imidazol-2-yl)piperidin-1-yl)butan-1-one has dissolved, the vial was removed from the heat and was allowed to cool to room temperature. If no precipitation was observed the vials haven been placed in the fridge (about 4° C.) over night.
# If 2-methyl-1-(2-(5-(p-tolyl)-1H-imidazol-2-yl)piperidin-1-yl)butan-1-one still has not dissolved, the procedure above has been repeated, starting with 0.05 g of 2-methyl-1-(2-(5-(p-tolyl)-1H-imidazol-2-yl)piperidin-1-yl)butan-1-one and 0.95 g of the respective solvent as indicated in Table 1 below. If still not dissolved, 1 g of the respective solvent was added (resulting in a composition comprising 2.5 weight % of a compound of formula (I))). If still not dissolved further solvent was added.
smiles,measurement,setting,value
CCC(C)C(=O)N1CCCCC1c1ncc(-c2ccc(C)cc2)[nH]1 (stereo not shown) [2-methyl-1-(2-(5-(p-tolyl)-1H-imidazol-2-yl)piperidin-1-yl)butan-1-one],"stability of a solution, weight % of compound, @ 4° C. Overnight",[1]; solvent Butyl lactate,20% weight %
same,"stability of a solution, weight % of compound, @ 4° C. Overnight",[1]; solvent Ethanol abs.,30% weight %
same,"stability of a solution, weight % of compound, @ 4° C. Overnight",[1]; solvent Ethyl lactate,10% weight %
same,"stability of a solution, weight % of compound, @ 4° C. Overnight",[1]; solvent Isopropyl alcohol,10% weight %
same,"stability of a solution, weight % of compound, @ 4° C. Overnight",[1]; solvent Isopropylidene glycerol,10% weight %
same,"stability of a solution, weight % of compound, @ 4° C. Overnight","[1]; solvent L-Lactic acid, purity 86.7 weight %",50% weight %
same,"stability of a solution, weight % of compound, @ 4° C. Overnight","[1]; solvent dl-Lactic acid, purity 88 weight %",50% weight %
same,in the fridge (precipitation),"[2]; solvent Butyl lactate, 10% solution",no crystals observed
same,solubility @ RT,"[2]; solvent Butyl lactate, dissolved at about 50° C., cooled to room temperature",10%
same,in the fridge (precipitation),"[2]; solvent Ethanol abs., 20% solution",no crystals observed
same,solubility @ RT,"[2]; solvent Ethanol abs., dissolved at about 50° C., cooled to room temperature",20%
same,in the fridge (precipitation),"[2]; solvent Ethyl lactate, 10% solution",no crystals observed
same,solubility @ RT,"[2]; solvent Ethyl lactate, dissolved at about 50° C., cooled to room temperature",10%
same,in the fridge (precipitation),"[2]; solvent Isopropyl alcohol, 10% solution",no crystals observed
same,solubility @ RT,"[2]; solvent Isopropyl alcohol, dissolved at about 50° C., cooled to room temperature",10%
same,in the fridge (precipitation),"[2]; solvent Isopropylidene glycerol, 10% solution",no crystals observed
same,solubility @ RT,"[2]; solvent Isopropylidene glycerol, dissolved at about 50° C., cooled to room temperature",10%
same,in the fridge (precipitation),"[2]; solvent L-Lactic acid, purity 86.7 weight %, 20% solution",no crystals observed
same,solubility @ RT,"[2]; solvent L-Lactic acid, purity 86.7 weight %, dissolved at about 50° C., cooled to room temperature",20%
same,in the fridge (precipitation),"[2]; solvent Propylene glycol, 2.5% solution",no crystals observed
same,solubility @ RT,"[2]; solvent Propylene glycol, dissolved at about 50° C., cooled to room temperature",2.5%
same,in the fridge (precipitation),"[2]; solvent Triacetin, 1% solution",no crystals observed
same,solubility @ RT,"[2]; solvent Triacetin, dissolved at about 50° C., cooled to room temperature",1%
same,in the fridge (precipitation),"[2]; solvent Triethyl citrate, 2.5% solution",no crystals observed
same,solubility @ RT,"[2]; solvent Triethyl citrate, dissolved at about 50° C., cooled to room temperature",2.5%
same,solubility @ RT,[2]; solvent Water dest.,<1% (not soluble)
same,in the fridge (precipitation),"[2]; solvent dl-Lactic acid, purity 88 weight %, 20% solution",no crystals observed
same,solubility @ RT,"[2]; solvent dl-Lactic acid, purity 88 weight %, dissolved at about 50° C., cooled to room temperature",20%
